This note sets out measurements from ChEMBL document CHEMBL3576765, “Rubrumazines A-C, Indolediketopiperazines of the Isoechinulin Class from Eurotium rubrum MA-150, a Fungus Obtained from Marine Mangrove-Derived Rhizospheric Soil” (J Nat Prod, 2015).

In brackets after ≈: the same amount, converted by molar mass.

In one data set the test system is Vibrio alginolyticus. As to the kind of experiment: Antibacterial activity against Vibrio alginolyticus by well diffusion method.
Details: not given; call rule not given here
It counts as functional.
As usually defined, the MIC is the lowest concentration found to suppress growth. A lower MIC goes with a more susceptible organism. As for `O=C(N[C@H](CO)[C@H](O)c1ccc([N+](=O)[O-])cc1)C(Cl)Cl` [CHLORAMPHENICOL], the MIC worked out at 4 µg/mL (≈ 12.4 µM).

Another data set concerns Artemia salina. As to the kind of experiment: (§1) Toxicity in brine shrimp assessed as mortality. It counts as organism-based. The conditions noted are these: in vivo.
For `C=CC(C)(C)c1[nH]c2ccc(CC=C(C)C)cc2c1C[C@@H]1NC(=O)[C@H](C)NC1=O` [TARDIOXOPIPERAZINE A], the LD50 entry is reported as “Not Active”.

In the case of `C=CC(C)(C)c1[nH]c2c(CC=C(C)C)cc(CC=C(C)C)cc2c1C[C@@H]1NC(=O)[C@H](C)NC1=O` [ECHINULIN], the LD50 result is reported as “Not Active”.

In the case of `C=CC(C)(C)c1[nH]c2ccc(CC=C(C)C)c(CC=C(C)C)c2c1C[C@@H]1NC(=O)[C@H](C)NC1=O` [VARIECOLORIN L], the LD50 entry was “Not Active”.

System in another data set: not listed separately
Described as §1. The conditions noted are these: artemia salina, in vivo; read-out: LD50 (the source's name). It is filed as organism-based.
Turning to `C=CC(C)(C)c1[nH]c2c(C[C@H](O)C(C)(C)OC)cccc2c1/C=C1\NC(=O)[C@H](C)NC1=O`, the LC50 stood at 29.8 µM.

As for `C=CC(C)(C)c1[nH]c2ccc(CC(=O)C(C)C)cc2c1/C=C1\NC(=O)[C@H](C)NC1=O` [VARIECOLORIN E], the LC50 came out at 24 µM.

In the case of `C=CC(C)(C)c1[nH]c2ccccc2c1/C=C1\NC(=O)C(=O)NC1=O`, the LC50 came to 3.9 µM.

In the case of `C=CC(C)(C)c1[nH]c2ccccc2c1/C=C1\NC(=O)C2(C=C3c4cc(O)cc(OC)c4C(=O)c4c(O)cc(C)c(c43)O2)NC1=O` (stereo unspecified), the LC50 turned out to be 9.8 µM.

In the case of `C=CC(C)(C)c1[nH]c2ccccc2c1/C=C1\NC(=O)C2(C=C3c4cc(O)cc(O)c4C(=O)c4c(O)cc(C)c(c43)O2)NC1=O` (stereo unspecified), the LC50 amounted to 16.7 µM.

Turning to `C=CC(C)(C)c1[nH]c2c(C[C@H](O)C(C)(C)O)cccc2c1/C=C1\NC(=O)[C@H](C)NC1=O`, the LC50 was determined as 2.4 µM.

As for `C[C@@H]1NC(=O)[C@H](Cc2c[nH]c3ccccc23)NC1=O`, the LC50 came out at 25.5 µM.

Consider `C=CC(C)(C)c1[nH]c2c(CC=C(C)C)cc(CC=C(C)C)c(CC=C(C)C)c2c1/C=C1\NC(=O)[C@H](C)NC1=O`, for which the LC50 came to 3.5 µM.

With `COc1cc2c(c(OC)c1OC)-c1ccc(OC)c(=O)cc1[C@@H](NC(C)=O)CC2` [COLCHICINE], the LC50 turned out to be 19.4 µM.

In the case of `C=CC(C)(C)c1[nH]c2ccc(CC=C(C)C)cc2c1/C=C1\NC(=O)[C@H](C)NC1=O` [ISOECHINULIN A], the LC50 was 11.7 µM.

As for `C=CC(C)(C)c1[nH]c2c(C[C@H](O)C(C)(C)O)cccc2c1C[C@@H]1NC(=O)[C@H](C)NC1=O`, the LC50 came to 16.5 µM.

Consider `C=CC(C)(C)c1[nH]c2c(CC=C(C)C)cccc2c1/C=C1\NC(=O)[C@H](C)NC1=O` [VARIECOLORIN G], for which the LC50 was determined as 22 µM.
